According to patent US8058295B2, “Cystic fibrosis transmembrane conductance regulator protein inhibitors and uses thereof” (The Regents of the University of California, priority 2002, dated 2011):

Tests used:
wildtype CFTR = wildtype CFTR (Homo sapiens, UniProt P13569); assay: YFP fluorescence assay of CFTR-mediated I^− transport in FRT cells; type: cell-based; design: expressed in transfected cells; host or cells: Fischer rat thyroid (FRT) cells; conditions: relative to CFTRinh-172 = 1.0
Experimental: FIG. 1A is a schematic representation of a screening technique used for detection of CFTR inhibitors. CFTR was maximally stimulated by multiple agonists in stably transfected epithelial cells co-expressing human CFTR and a yellow fluorescent protein (YFP) having Cl^−/I^− sensitive fluorescence. After addition of a test compound, I^− influx was induced by adding an I^− containing solution.
Cells were plated in 96-well black-walled microplates (Corning Costar) at a density of 20,000 cells per well in Coon's modified F12 medium supplemented with 5% fetal calf serum, 2 mM L-glutamine, 100 U/mL penicillin, and 100 μg/mL streptomycin. Assays were done at 48 hours after plating at which time cells were just confluent (˜40,000 cells per well).
Assays were done using a customized screening system (Beckman) consisting of a 3-meter robotic arm, CO2 incubator, plate washer, liquid handling workstation, bar code reader, delidding station, and two FluoStar fluorescence plate readers (BMG Labtechnologies, Offenburg, Germany), each equipped with two syringe pumps and HQ500/20X (500±10 nm) excitation and HQ535/30M (535±15 nm) emission filters (Chroma). The robotic system was integrated using SAMI version 3.3 software (Beckman) modified for two plate readers. Custom software was written in VBA (Visual Basic for Applications) to compute baseline-subtracted, normalized fluorescence slopes (giving halide influx rates) from stored data files.
The assay was set-up by loading the incubator (37° C., 90% humidity, 5% CO2) with 40-60 96-well plates containing the FRT cells, and loading a carousel with 96-well plates containing test compounds and disposable plastic pipette tips. To initiate the assay, each well of a 96-well plate was washed 3 times in PBS (300 μL/wash), leaving 50 μL PBS. Ten μL of a CFTR-activating cocktail (5 μM forskolin, 100 μM IBMX, 25 μM apigenin in PBS) was added, and after 5 min one test compound (0.5 μL of 1 mM DMSO solution) was added to each well to give 10 μM final concentration. After 10 min, 96-well plates were transferred to a plate reader for fluorescence assay. Each well was assayed individually for CFTR-mediated I^− transport by recording fluorescence continuously (200 ms per point) for 2 s (baseline) and then for 12 s after rapid (<0.5 s) addition of 160 μL of isosmolar PBS in which 137 mM Cl^− was replaced by I^−.
The primary screening technique used to identify the compounds of the invention was designed to identify inhibitors of CFTR Cl^− conductance by direct CFTR-inhibitor interaction. CFTR was pre-stimulated in CFTR-expressing FRT cells by an activating cocktail containing forskolin, IBMX and apigenin, as shown schematically in FIG. 1A. The activation of CFTR by multiple mechanisms (cAMP elevation, phosphodiesterase inhibition, and direct CFTR binding) allowed identification of inhibitors that blocked the CFTR Cl^− transporting pathway directly rather than more proximal step(s) in a signaling pathway. The FRT cells co-expressed a yellow fluorescent protein-based Cl^−/I^− sensor that provided a quantitative fluorescence read-out of inhibition potency (See, e.g., Jayaraman et al., 2000, J. Biol. Chem. 275:6047-6050; Galietta et al., 2001, Am. J. Physiol. 281:C1734-C1742.). After CFTR pre-stimulation and compound addition, cells were subjected to an inwardly-directed I^− gradient to drive I^− influx and produce decreasing fluorescence. Each assay consisted of recording baseline fluorescence for 2 seconds, followed by 12 seconds of continuous recording of fluorescence after rapid addition of the I^− containing solution. Compounds were tested separately at 10 μM concentration in a 96-well format utilizing a fully-automated high-throughput screening apparatus (see Example 2 below).

Caco-2 monolayers = conditions: literature values, Stenberg et al.; cited from earlier work
MDR-1 = target: T1, MDR-1 (Homo sapiens, UniProt P08183); assay: MDR-1 activity, ^3H-vincristine accumulation in 9HTEo-/Dx cells; type: cell-based; conditions: 100 μM
T1 construct: endogenous in cells; host or cells: 9HTEo-/Dx cells
T1 sequence (P08183 whole entry): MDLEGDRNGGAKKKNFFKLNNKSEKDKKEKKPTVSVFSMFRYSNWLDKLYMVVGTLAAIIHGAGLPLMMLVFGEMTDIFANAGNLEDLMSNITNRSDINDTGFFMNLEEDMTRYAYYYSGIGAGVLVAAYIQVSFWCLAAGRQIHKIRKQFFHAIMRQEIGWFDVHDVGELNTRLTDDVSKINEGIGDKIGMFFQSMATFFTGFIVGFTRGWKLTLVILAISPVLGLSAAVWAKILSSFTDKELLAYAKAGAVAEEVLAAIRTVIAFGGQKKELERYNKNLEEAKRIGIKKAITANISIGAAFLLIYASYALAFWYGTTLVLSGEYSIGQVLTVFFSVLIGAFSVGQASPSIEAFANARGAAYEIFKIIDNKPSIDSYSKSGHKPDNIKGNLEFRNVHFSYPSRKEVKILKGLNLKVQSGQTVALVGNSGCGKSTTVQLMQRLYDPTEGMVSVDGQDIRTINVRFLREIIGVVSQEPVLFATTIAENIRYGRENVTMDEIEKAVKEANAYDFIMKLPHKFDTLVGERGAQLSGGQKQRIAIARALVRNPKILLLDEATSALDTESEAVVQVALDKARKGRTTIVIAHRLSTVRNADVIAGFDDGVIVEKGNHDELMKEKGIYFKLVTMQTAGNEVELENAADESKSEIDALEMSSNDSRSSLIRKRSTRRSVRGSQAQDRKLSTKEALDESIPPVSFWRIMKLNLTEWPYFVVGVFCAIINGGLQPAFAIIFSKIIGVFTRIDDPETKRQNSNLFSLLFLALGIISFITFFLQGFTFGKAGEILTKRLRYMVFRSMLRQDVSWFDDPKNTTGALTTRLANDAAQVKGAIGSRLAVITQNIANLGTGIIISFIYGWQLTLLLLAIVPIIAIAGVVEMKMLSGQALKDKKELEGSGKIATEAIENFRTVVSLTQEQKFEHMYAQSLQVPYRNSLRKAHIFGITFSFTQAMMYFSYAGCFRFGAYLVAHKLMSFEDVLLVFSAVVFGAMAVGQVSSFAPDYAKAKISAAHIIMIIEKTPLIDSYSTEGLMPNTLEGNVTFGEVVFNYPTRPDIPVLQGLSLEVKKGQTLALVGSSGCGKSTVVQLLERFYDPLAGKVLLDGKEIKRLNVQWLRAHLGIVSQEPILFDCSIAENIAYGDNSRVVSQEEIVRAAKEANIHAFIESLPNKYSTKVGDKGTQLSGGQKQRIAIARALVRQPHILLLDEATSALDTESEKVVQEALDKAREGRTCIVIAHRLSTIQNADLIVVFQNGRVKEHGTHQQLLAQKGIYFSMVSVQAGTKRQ

wildtype CFTR, sequence (P13569 whole entry): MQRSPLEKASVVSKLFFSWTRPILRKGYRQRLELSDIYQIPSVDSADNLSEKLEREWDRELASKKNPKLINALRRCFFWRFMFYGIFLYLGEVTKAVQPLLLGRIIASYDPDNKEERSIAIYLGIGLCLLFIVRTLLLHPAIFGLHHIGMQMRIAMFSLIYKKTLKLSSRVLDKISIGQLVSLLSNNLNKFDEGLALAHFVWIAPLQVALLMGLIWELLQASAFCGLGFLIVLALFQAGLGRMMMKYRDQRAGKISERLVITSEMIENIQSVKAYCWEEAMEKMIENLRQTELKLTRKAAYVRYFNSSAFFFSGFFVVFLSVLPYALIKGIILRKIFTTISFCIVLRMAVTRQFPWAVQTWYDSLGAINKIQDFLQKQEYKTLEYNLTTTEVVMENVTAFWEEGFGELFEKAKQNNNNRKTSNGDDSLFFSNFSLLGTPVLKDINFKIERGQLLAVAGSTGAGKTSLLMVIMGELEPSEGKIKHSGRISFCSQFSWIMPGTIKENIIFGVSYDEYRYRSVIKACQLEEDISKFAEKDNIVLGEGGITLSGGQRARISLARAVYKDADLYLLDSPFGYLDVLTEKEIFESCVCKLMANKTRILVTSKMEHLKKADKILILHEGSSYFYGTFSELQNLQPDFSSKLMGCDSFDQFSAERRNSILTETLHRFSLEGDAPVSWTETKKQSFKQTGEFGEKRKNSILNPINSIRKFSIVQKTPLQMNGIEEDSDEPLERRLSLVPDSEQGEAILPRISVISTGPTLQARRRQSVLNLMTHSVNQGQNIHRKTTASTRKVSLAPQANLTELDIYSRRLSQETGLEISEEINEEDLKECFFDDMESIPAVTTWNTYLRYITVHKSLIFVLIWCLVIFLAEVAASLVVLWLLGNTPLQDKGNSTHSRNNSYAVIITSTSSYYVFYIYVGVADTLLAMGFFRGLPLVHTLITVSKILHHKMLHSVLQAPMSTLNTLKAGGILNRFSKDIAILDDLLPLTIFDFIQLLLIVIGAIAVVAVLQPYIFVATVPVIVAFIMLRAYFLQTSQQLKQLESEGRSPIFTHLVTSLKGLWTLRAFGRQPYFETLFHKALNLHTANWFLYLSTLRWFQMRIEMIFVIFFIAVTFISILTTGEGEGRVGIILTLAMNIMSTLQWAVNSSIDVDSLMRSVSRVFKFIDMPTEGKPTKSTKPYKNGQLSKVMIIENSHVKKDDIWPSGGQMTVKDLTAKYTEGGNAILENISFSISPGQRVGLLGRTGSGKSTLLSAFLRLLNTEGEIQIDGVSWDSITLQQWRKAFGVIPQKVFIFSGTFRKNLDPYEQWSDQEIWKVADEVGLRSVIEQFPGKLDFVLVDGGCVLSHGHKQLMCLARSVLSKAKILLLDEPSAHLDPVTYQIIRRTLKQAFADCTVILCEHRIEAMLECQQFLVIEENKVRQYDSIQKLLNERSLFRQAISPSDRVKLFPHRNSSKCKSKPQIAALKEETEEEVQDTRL

Row | Compound | relative potency (CFTR inhibition) (wildtype CFTR) | also measured
1 | O=C(O)c1ccccc1C=C1SC(=S)N(c2ccccc2C(F)(F)F)C1=O [2, 3, 3-[(a-trifluoromethyl)phenyl]-5-[(b-carboxyphenyl)methylene]-2-thioxo-4-thiazolidinone] | 0.70 | 
2 | O=C(O)c1ccccc1C=C1SC(=S)N(c2ccccc2C(F)(F)F)C1=O [2, 4, 3-[(a-trifluoromethyl)phenyl]-5-[(b-carboxyphenyl)methylene]-2-thioxo-4-thiazolidinone] | 0.66 | 
3 | O=C(O)c1ccccc1C=C1SC(=S)N(c2ccccc2C(F)(F)F)C1=O [3, 2, 3-[(a-trifluoromethyl)phenyl]-5-[(b-carboxyphenyl)methylene]-2-thioxo-4-thiazolidinone] | 0.74 | 
4 | O=C(O)c1ccccc1C=C1SC(=S)N(c2ccccc2C(F)(F)F)C1=O [3, 3, 3-[(a-trifluoromethyl)phenyl]-5-[(b-carboxyphenyl)methylene]-2-thioxo-4-thiazolidinone] | 0.90 | 
5 | O=C(O)c1ccccc1C=C1SC(=S)N(c2ccccc2C(F)(F)F)C1=O [4, 2, 3-[(a-trifluoromethyl)phenyl]-5-[(b-carboxyphenyl)methylene]-2-thioxo-4-thiazolidinone] | 0.67 | 
6 | O=C(O)c1ccccc1C=C1SC(=S)N(c2ccccc2C(F)(F)F)C1=O [4, 3, 3-[(a-trifluoromethyl)phenyl]-5-[(b-carboxyphenyl)methylene]-2-thioxo-4-thiazolidinone] | 0.64 | 
7 | O=C(O)c1ccccc1C=C1SC(=S)N(c2ccccc2C(F)(F)F)C1=O [4, 4, 3-[(a-trifluoromethyl)phenyl]-5-[(b-carboxyphenyl)methylene]-2-thioxo-4-thiazolidinone] | 0.56 | 
8 | O=C1/C(=C/c2ccc([N+](=O)[O-])cc2)SC(=S)N1c1cccc(C(F)(F)F)c1 [CFTRinh-020, 3-[(3-trifluoromethyl)phenyl]-5-[(4-nitrophenyl)methylene]-2-thioxo-4-thiazolidinone] | 0.2 | 
9 | O=C(O)Oc1ccc(/C=C2\SC(=S)N(c3cccc(C(F)(F)F)c3)C2=O)cc1 [CFTRinh-029, 3-[(3-trifluoromethyl)phenyl]-5-[(4-oxycarboxyphenyl)methylene]-2-thioxo-4-thiazolidinone] | 0.3 | 
10 | O=C1/C(=C/c2ccc(O)c(O)c2)SC(=S)N1c1cccc(C(F)(F)F)c1 [CFTRinh-185, 3-[(3-trifluoromethyl)phenyl]-5-[(3,4-dihydroxyphenyl)methylene]-2-thioxo-4-thiazolidinone] | 0.2 | 
11 | O=C1/C(=C/c2cc(Br)c(O)c(Br)c2)SC(=S)N1c1cccc(C(F)(F)F)c1 [CFTRinh-214, 3-[(3-trifluoromethyl)phenyl]-5-[(3,5-dibromo-4-hydroxyphenyl)methylene]-2-thioxo-4-thiazolidinone] | 0.1 | 
12 | O=C1/C(=C/c2cc(Br)c(O)c([N+](=O)[O-])c2)SC(=S)N1c1cccc(C(F)(F)F)c1 [CFTRinh-236, 3-[(3-trifluoromethyl)phenyl]-5-[(3-bromo-4-hydroxy-5-nitrophenyl)methylene]-2-thioxo-4-thiazolidinone] | 0.1 | 
13 | O=C(O)c1ccccc1C=C1SC(=S)N(c2ccccc2C(F)(F)F)C1=O [a=2, b=2, 3-[(a-trifluoromethyl)phenyl]-5-[(b-carboxyphenyl)methylene]-2-thioxo-4-thiazolidinone] | 0.69 | 
14 | CC(C)NCC(O)COc1cccc2[nH]ccc12 (stereo not shown) [pindolol] |  | permeability coefficient (Caco-2 monolayers): 36 ×10⁻⁶ cm/s
15 | CCCc1nn(C)c2c(=O)[nH]c(-c3cc(S(=O)(=O)N4CCN(C)CC4)ccc3OCC)nc12 [sildenafil] |  | permeability coefficient (Caco-2 monolayers): 48 ×10⁻⁶ cm/s
16 | COc1ccc(CCN(C)CCCC(C#N)(c2ccc(OC)c(OC)c2)C(C)C)cc1OC (stereo not shown) [verapamil, reference compound] |  | vincristine accumulation (MDR-1): strongly increased
